# Data: the supplement of paper PMC10307832
# Experiments:
# Assay in all cases: relative viability (nuclei count vs DMSO), 5 days (fraction); higher = more cells survive
# Kobe2602 + Tozasertib = compound: C1=CC(=CC=C1NC(=S)NNC2=C(C=C(C=C2[N+](=O)[O-])C(F)(F)F)[N+](=O)[O-])F [Kobe2602] + Cc1cc(Nc2cc(N3CCN(C)CC3)nc(Sc3ccc(NC(=O)C4CC4)cc3)n2)n[nH]1 [Tozasertib] (partner 0.1 µM)
# Summary of the method: (§1)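 For relative viability, nuclei counts in treated wells were divided by those in vehicle wells. Lung cancer cell lines had been pin-tool dosed in 1536-well plates the day after seeding and cultured for 5 days, then fixed and stained in one step (final 0.05% Triton X-100, 1% formaldehyde, 1 ug/ml Hoechst) and imaged at 4×. Doses were one drug alone or a fixed anchor-drug dose plus five library-drug doses (not always all listed) in √10 steps, and values are duplicate-plate medians.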
# [1] = compound: COc1cc2nccc(Oc3ccc(NC(=O)C4(C(=O)Nc5ccc(F)cc5)CC4)cc3)c2cc1OC [Cabozantinib] + N=C(N)NC(=N)NCCc1ccccc1 [Phenformin] (partner 250 µM)
# Summary of the method: as §1
# Zosuquidar + Palbociclib = compound: O[C@@H](COc1cccc2ncccc12)CN1CCN([C@@H]2c3ccccc3[C@@H]3[C@H](c4ccccc42)C3(F)F)CC1 [Zosuquidar] + CC(=O)c1c(C)c2cnc(Nc3ccc(N4CCNCC4)cn3)nc2n(C2CCCC2)c1=O [Palbociclib] (partner 0.5 µM)
# Summary of the method: as §1
# Kobe2602 + OSI-027 = compound: C1=CC(=CC=C1NC(=S)NNC2=C(C=C(C=C2[N+](=O)[O-])C(F)(F)F)[N+](=O)[O-])F [Kobe2602] + COc1cccc2cc(-c3nc([C@H]4CC[C@H](C(=O)O)CC4)n4ncnc(N)c34)[nH]c12 [OSI-027] (partner 0.5 µM)
# Summary of the method: as §1
cell line,measurement,setting,value
UMC-11,relative viability,Kobe2602 + Tozasertib; first compound 0.2 µM,0.215
same,relative viability,Kobe2602 + Tozasertib; first compound 0.6325 µM,0.219
same,relative viability,Kobe2602 + Tozasertib; first compound 2 µM,0.189
same,relative viability,Kobe2602 + Tozasertib; first compound 6.325 µM,0.197
same,relative viability,Kobe2602 + Tozasertib; first compound 20 µM,0.211
same,relative viability,[1]; first compound 0.02 µM,0.309
same,relative viability,[1]; first compound 0.06325 µM,0.35
same,relative viability,[1]; first compound 0.2 µM,0.335
same,relative viability,[1]; first compound 0.6325 µM,0.32
same,relative viability,[1]; first compound 2 µM,0.331
same,relative viability,Zosuquidar + Palbociclib; first compound 0.01 µM,0.313
same,relative viability,Zosuquidar + Palbociclib; first compound 0.03162 µM,0.305
same,relative viability,Zosuquidar + Palbociclib; first compound 0.1 µM,0.338
same,relative viability,Zosuquidar + Palbociclib; first compound 0.3162 µM,0.341
same,relative viability,Zosuquidar + Palbociclib; first compound 1 µM,0.296
same,relative viability,Kobe2602 + OSI-027; first compound 0.2 µM,0.461
same,relative viability,Kobe2602 + OSI-027; first compound 0.6325 µM,0.537
same,relative viability,Kobe2602 + OSI-027; first compound 2 µM,0.539
same,relative viability,Kobe2602 + OSI-027; first compound 6.325 µM,0.459
same,relative viability,Kobe2602 + OSI-027; first compound 20 µM,0.467
